Tests used:
[1] = for decrease in CLint compared to 36: human, rat, s9
SARS-CoV-2 3CL^pro = SARS-CoV-2 3CL^pro (Severe acute respiratory syndrome coronavirus 2, UniProt P0DTD1); format: biochemical
[2] = human, pH 7.4

O=C(Nc1ccc(N(Cc2ccsc2)C(=O)Cn2nnc3ccccc32)cc1)C1CC1 [Compound 1, reference compound]
microsomal clearance ([1]; microsomes): exceptionally high

O=C(Cn1nnc2ccccc21)N(Cc1ccsc1)c1ccc(-c2cccnc2)cc1 [Compound 8, 2-(1H-Benzo[d][1,2,3]triazol-1-yl)-N-(4-(pyridin-3-yl)phenyl)-N-(thiophen-3-ylmethyl)acetamide]
ligand efficiency (LE) (SARS-CoV-2 3CL^pro): 0.27

O=C(Cn1nnc2ccccc21)N(Cc1cccc(Cl)c1)c1ccc(-c2cn[nH]c2)cc1 [Compound 36, N-(4-(1H-Pyrazol-4-yl)phenyl)-2-(1H-benzo[d][1,2,3]triazol-1-yl)-N-(3-chlorobenzyl)acetamide]
M1 metabolite formation (oxidation of the benzylic 3-chlorophenyl ring) [2]: 60%
M3 metabolite formation (cleavage of the 3-chlorobenzyl group) [2]: 7%

O=C(Cc1cccnc1)N(Cc1cccc(Cl)c1)c1ccc(-c2cn[nH]c2)cc1 [Compound 42, N-[(3-Chlorophenyl)methyl]-N-[4-(1H-pyrazol-4-yl)phenyl]-2-(3-pyridyl)acetamide]
decrease in CLint compared to 36 [1]: 2 fold

O=C(Cc1cncnc1)N(Cc1cccc(Cl)c1)c1ccc(-c2cn[nH]c2)cc1 [Compound 43, N-[(3-Chlorophenyl)methyl]-N-[4-(1H-pyrazol-4-yl)phenyl]-2-pyrimidin-5-yl-acetamide]
decrease in CLint compared to 36 [1]: 4 fold

Source: article PMC8353992 (Journal of medicinal chemistry, 2021)
